Test results taken from PubChem BioAssay AID248 (DTP/NCI, 2004).
Several values for one entry are separate records, joined by “and”; a condition that tells them apart may be missing. Identical values can stand only once. Inconclusive results and toxic doses are left out. No stated cut-off is given here; in the data, active means T/C of 150% or more; inactive means T/C below 125%.

Tested on: L1210 leukemia ip in BDF1 mice, survival T/C
Assay: NCI In Vivo Anticancer Drug Screen. Data for tumor model L1210 Leukemia (intraperitoneal) in B6D2F1 (BDF1) mice
Settings: endpoint: mean survival time, higher = longer survival
How it was run: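 Tumor was transplanted into mice, which were then dosed with test compound or vehicle alone. Survival was recorded for each group, and the treated figure was expressed relative to the control figure.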

[1] = dose: 100.0 mg/kg/injection, schedule: Q04DX003 (ip), vehicle: Klucel (hydroxypropylcellulose) (HPC)
[2] = dose: 100.0 mg/kg/injection, schedule: Q04DX003 (ip), vehicle: saline with Tween-80
[3] = dose: 200.0 mg/kg/injection, schedule: Q04DX003 (ip), vehicle: saline with Tween-80
[4] = dose: 400.0 mg/kg/injection, schedule: Q04DX003 (ip), vehicle: saline with Tween-80
[5] = dose: 100.0 mg/kg/injection, schedule: Q01DX009 (ip), vehicle: saline with Tween-80
[6] = dose: 100.0 mg/kg/injection, schedule: Q04DX002 (ip), vehicle: saline with Tween-80
[7] = dose: 200.0 mg/kg/injection, schedule: Q01DX009 (ip), vehicle: saline with Tween-80
[8] = dose: 200.0 mg/kg/injection, schedule: Q04DX002 (ip), vehicle: saline with Tween-80
[9] = dose: 400.0 mg/kg/injection, schedule: Q01DX009 (ip), vehicle: saline with Tween-80
[10] = dose: 400.0 mg/kg/injection, schedule: Q04DX002 (ip), vehicle: saline with Tween-80
[11] = dose: 25.0 mg/kg/injection, schedule: Q04DX003 (ip), vehicle: saline
[12] = dose: 50.0 mg/kg/injection, schedule: Q04DX003 (ip), vehicle: saline
[13] = dose: 100.0 mg/kg/injection, schedule: Q01DX001 (ip), vehicle: saline
[14] = dose: 200.0 mg/kg/injection, schedule: Q01DX001 (ip), vehicle: saline
[15] = dose: 400.0 mg/kg/injection, schedule: Q01DX001 (ip), vehicle: saline
[16] = dose: 100.0 mg/kg/injection, schedule: Q01DX009 (ip), vehicle: Klucel (hydroxypropylcellulose) (HPC)
[17] = dose: 100.0 mg/kg/injection, schedule: Q04DX003 (ip), vehicle: saline
[18] = dose: 200.0 mg/kg/injection, schedule: Q04DX003 (ip), vehicle: saline
[19] = dose: 400.0 mg/kg/injection, schedule: Q04DX003 (ip), vehicle: saline
[20] = dose: 50.0 mg/kg/injection, schedule: Q04DX003 (ip), vehicle: saline with Tween-80
[21] = dose: 200.0 mg/kg/injection, schedule: Q01DX009 (ip), vehicle: Klucel (hydroxypropylcellulose) (HPC)

Measured: T/C

O=C1Nc2cc(C(F)(F)F)ccc2/C1=C/c1ccc(Cl)cc1
inactive: dose: 75.0 mg/kg/injection, schedule: Q01DX001 (ip), vehicle: saline 92 % of control | dose: 75.0 mg/kg/injection, schedule: Q04DX003 (ip), vehicle: saline 96 % of control | dose: 150.0 mg/kg/injection, schedule: Q01DX001 (ip), vehicle: saline 97 % of control | dose: 150.0 mg/kg/injection, schedule: Q04DX003 (ip), vehicle: saline 100 % of control | dose: 300.0 mg/kg/injection, schedule: Q01DX001 (ip), vehicle: saline 97 % of control | dose: 300.0 mg/kg/injection, schedule: Q04DX003 (ip), vehicle: saline 94 % of control

Cn1cc([N+](=O)[O-])ccc1=O
inactive: [1] 110 % of control | dose: 200.0 mg/kg/injection, schedule: Q04DX003 (ip), vehicle: Klucel (hydroxypropylcellulose) (HPC) 116 % of control | dose: 400.0 mg/kg/injection, schedule: Q04DX003 (ip), vehicle: Klucel (hydroxypropylcellulose) (HPC) 121 % of control

CCC(C)(O)C#Cc1ccc(C)nc1 (configuration not stated)
inactive: [2] 97 % of control | [3] 96 % of control | [4] 94 % of control

COc1ccc2c(cc1=O)CC=CC1CC(OC)C(OC)C(OC)C21 (configuration not stated)
inactive: [2] 92 % of control | [3] 93 % of control | [4] 101 % of control

CSc1ccc(NC(=O)OCCOc2ccccc2)cc1
inactive: dose: 100.0 mg/kg/injection, schedule: Q01DX001 (ip), vehicle: saline with Tween-80 94 % of control | [5] 96 % of control and 89 % of control | [6] 99 % of control | [2] 100 % of control | dose: 200.0 mg/kg/injection, schedule: Q01DX001 (ip), vehicle: saline with Tween-80 94 % of control | [7] 97 % of control and 89 % of control | [8] 108 % of control | [3] 102 % of control | dose: 400.0 mg/kg/injection, schedule: Q01DX001 (ip), vehicle: saline with Tween-80 110 % of control | [9] 94 % of control and 107 % of control | [10] 89 % of control | [4] 102 % of control

Cc1cc(Cl)nc(Nc2nc3cc(Cl)c(Cl)cc3[nH]2)n1
inactive: dose: 12.5 mg/kg/injection, schedule: Q01DX009 (ip), vehicle: acetone 87 % of control and 92 % of control | dose: 12.5 mg/kg/injection, schedule: Q04DX003 (ip), vehicle: saline 95 % of control and 112 % of control | dose: 25.0 mg/kg/injection, schedule: Q01DX009 (ip), vehicle: acetone 87 % of control | [11] 94 % of control and 95 % of control | dose: 50.0 mg/kg/injection, schedule: Q01DX009 (ip), vehicle: acetone 88 % of control | [12] 94 % of control and 101 % of control | [13] 91 % of control | [14] 93 % of control | [15] 91 % of control

OCC1OC(n2cnc3cncnc32)CC1O (configuration not stated)
inactive: [13] 103 % of control | [14] 97 % of control | [15] 107 % of control

C=CS(=O)(=O)c1ccccc1
inactive: dose: 18.0 mg/kg/injection, schedule: Q04DX003 (ip), vehicle: saline with Tween-80 102 % of control | dose: 25.0 mg/kg/injection, schedule: Q01DX009 (ip), vehicle: Klucel (hydroxypropylcellulose) (HPC) 91 % of control | dose: 36.0 mg/kg/injection, schedule: Q04DX003 (ip), vehicle: saline with Tween-80 104 % of control | dose: 50.0 mg/kg/injection, schedule: Q01DX009 (ip), vehicle: Klucel (hydroxypropylcellulose) (HPC) 91 % of control | dose: 72.0 mg/kg/injection, schedule: Q04DX003 (ip), vehicle: saline with Tween-80 98 % of control | [16] 94 % of control | [2] 97 % of control | [3] 92 % of control | [4] 95 % of control

CC1CCc2[nH]c3ccc4ccccc4c3c2C1 (configuration not stated)
inactive: dose: 25.0 mg/kg/injection, schedule: Q04DX003 (ip), vehicle: Klucel (hydroxypropylcellulose) (HPC) 98 % of control | dose: 50.0 mg/kg/injection, schedule: Q04DX003 (ip), vehicle: Klucel (hydroxypropylcellulose) (HPC) 95 % of control | [1] 93 % of control

CCOC(=O)n1c(=O)[nH]c2ccccc21
inactive: dose: 87.5 mg/kg/injection, schedule: Q04DX003 (ip), vehicle: carboxymethylcellulose (CMC) 97 % of control | dose: 175.0 mg/kg/injection, schedule: Q04DX003 (ip), vehicle: carboxymethylcellulose (CMC) 91 % of control | dose: 350.0 mg/kg/injection, schedule: Q04DX003 (ip), vehicle: carboxymethylcellulose (CMC) 101 % of control

CCOC(=O)CNCc1cccnc1
inactive: dose: 100.0 mg/kg/injection, schedule: Q01DX009 (ip), vehicle: saline 97 % of control | [17] 95 % of control | dose: 200.0 mg/kg/injection, schedule: Q01DX009 (ip), vehicle: saline 94 % of control | [18] 87 % of control | dose: 400.0 mg/kg/injection, schedule: Q01DX009 (ip), vehicle: saline 95 % of control | [19] 102 % of control

Cc1c(C#N)c2n(c1C)CCCC(=O)N2
inactive: dose: 50.0 mg/kg/injection, schedule: Q01DX009 (ip), vehicle: saline with Tween-80 91 % of control | [20] 101 % of control | [5] 90 % of control | [2] 88 % of control | [7] 91 % of control | [3] 97 % of control | [9] 88 % of control | [4] 92 % of control

CC/C(C)=N\NC(=O)CC(=O)N/N=C(/C)CC
inactive: [16] 95 % of control | [21] 101 % of control | dose: 400.0 mg/kg/injection, schedule: Q01DX009 (ip), vehicle: Klucel (hydroxypropylcellulose) (HPC) 100 % of control

Cc1cc(Cl)cc(Cl)c1OCC(N)=O
inactive: [6] 94 % of control | [8] 94 % of control | [10] 94 % of control

O=C1c2ccccc2C(=O)N1CNc1ccc(Cc2ccc(NCN3C(=O)c4ccccc4C3=O)c(Cl)c2)cc1Cl
inactive: [5] 92 % of control | [17] 101 % of control | [7] 92 % of control | [18] 96 % of control | [9] 92 % of control | [19] 96 % of control

CC(=O)OC1CCCCCCCCC1OC(C)=O (configuration not stated)
inactive: dose: 100.0 mg/kg/injection, schedule: Q01DX001 (ip), vehicle: carboxymethylcellulose (CMC) 103 % of control | dose: 200.0 mg/kg/injection, schedule: Q01DX001 (ip), vehicle: carboxymethylcellulose (CMC) 98 % of control | dose: 400.0 mg/kg/injection, schedule: Q01DX001 (ip), vehicle: carboxymethylcellulose (CMC) 95 % of control

CCCCCCNC(=O)NC
inactive: [16] 97 % of control | [21] 103 % of control

C=C(Cl)CO
inactive: [11] 118 % of control | [12] 89 % of control

CCc1ccc2c(c1)N(CCCN(CCCl)CCCl)c1ccccc1S2
inactive: dose: 1.56 mg/kg/injection, schedule: Q01DX009 (ip), vehicle: saline with Tween-80 107 % of control | dose: 3.12 mg/kg/injection, schedule: Q01DX001 (ip), vehicle: saline with Tween-80 97 % of control | dose: 3.12 mg/kg/injection, schedule: Q01DX009 (ip), vehicle: saline with Tween-80 102 % of control | dose: 6.25 mg/kg/injection, schedule: Q01DX001 (ip), vehicle: saline with Tween-80 97 % of control | dose: 6.25 mg/kg/injection, schedule: Q01DX009 (ip), vehicle: saline with Tween-80 100 % of control | dose: 6.25 mg/kg/injection, schedule: Q04DX003 (ip), vehicle: saline with Tween-80 110 % of control | dose: 12.5 mg/kg/injection, schedule: Q01DX001 (ip), vehicle: saline with Tween-80 111 % of control | dose: 12.5 mg/kg/injection, schedule: Q01DX009 (ip), vehicle: saline with Tween-80 102 % of control | dose: 12.5 mg/kg/injection, schedule: Q04DX003 (ip), vehicle: saline with Tween-80 111 % of control | dose: 25.0 mg/kg/injection, schedule: Q04DX003 (ip), vehicle: saline with Tween-80 111 % of control | [20] 111 % of control

CON(C)c1nc2ccccc2o1
inactive: dose: 50.0 mg/kg/injection, schedule: Q01DX001 (ip), vehicle: saline 103 % of control | [13] 100 % of control | [14] 100 % of control | [15] 100 % of control
